Experimental data: the supplement of paper PMC8967900

Legend:
Test in all cases: selective drug sensitivity score (sDSS, relative to normal bone marrow) (sDSS (score)); higher = more potent and effective on the cell line relative to normal bone marrow cells
Settings in all cases: 72 h
[1] = tested on: ALL-SIL
[2] = tested on: CCRF-CEM
[3] = tested on: COG-LL-317
[4] = tested on: COG-LL-355h
[5] = tested on: HAL-01
[6] = tested on: JURKAT
[7] = tested on: KARPAS-45
[8] = tested on: KOPN-8
[9] = tested on: LC4-1
[10] = tested on: MHH-CALL-3
[11] = tested on: MHH-CALL-4
[12] = tested on: MOLT-14
[13] = tested on: MOLT-16
[14] = tested on: NALL-1
[15] = tested on: P30-OHKUBO
[16] = tested on: PF-382
[17] = tested on: RCH-ACV
[18] = tested on: RPMI-8402
[19] = tested on: SEM cells
[20] = tested on: TANOUE
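Note: ALL cell lines in 384-well plates, five doses spanning 10,000-fold, each plate scaled between vehicle and 100 µmol/L benzalkonium chloride controls, sDSS an adapted area-under-curve metric.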

SMILES	selective drug sensitivity score [1]	selective drug sensitivity score [2]	selective drug sensitivity score [3]	selective drug sensitivity score [4]	selective drug sensitivity score [5]	selective drug sensitivity score [6]	selective drug sensitivity score [7]	selective drug sensitivity score [8]	selective drug sensitivity score [9]	selective drug sensitivity score [10]	selective drug sensitivity score [11]	selective drug sensitivity score [12]	selective drug sensitivity score [13]	selective drug sensitivity score [14]	selective drug sensitivity score [15]	selective drug sensitivity score [16]	selective drug sensitivity score [17]	selective drug sensitivity score [18]	selective drug sensitivity score [19]	selective drug sensitivity score [20]
Cc1ccc(C(=O)N(CCCN)[C@@H](c2oc3cc(Cl)ccc3c(=O)c2Cc2ccccc2)C(C)C)cc1 (top concentration 100 nM)	1.06	2.76	1.16	-2.64	3.66	2.96	7.16	3.46	2.86	-2.44	6.96	3.76	7.46	6.06	4.06	0.86	1.96	2.86	5.66	-3.64
C[C@@H](Oc1ccc2[nH]nc(/C=C/c3cnn(CCO)c3)c2c1)c1c(Cl)cncc1Cl (top concentration 1000 nM)	14.3	-2.74	-2.74	0.36	1.36	-4.84	0.56	-2.44	1.36	-7.04	-0.64	-0.94	-2.04	-1.74	6.06	-2.14	10.6	-3.14	6.26	-7.04
CCn1c(C(=O)N(C2CC2)C2CC2)cc2c3c(ncn3C)c(Nc3cc(C)n(C)n3)nc21 (top concentration 10000 nM)	-4.36	-3.96	-4.36	1.14	1.04	-4.36	-3.06	-4.36	-4.36	-4.36	-1.56	-4.36	-4.36	0.44	-3.66	-4.36	-3.06	-4.16	0.94	-4.36
CNc1nc(-c2ccc3c(N)n[nH]c3c2)cc(N2C[C@@H](C(=O)NC3CCCCC3)CC[C@H]2C)n1 (top concentration 10000 nM)	1.36	1.36	-0.14	6.66	-0.14	-0.14	-0.14	7.26	0.76	-0.14	3.46	-0.14	-0.14	-0.14	7.86	2.76	18.6	-0.14	3.26	0.16
COc1ccc(Cn2ccc3ccc(C(=O)NO)cc32)cc1 (top concentration 10000 nM)	2.64	3.34	13.7	0.74	5.84	2.84	2.94	8.74	4.54	1.74	0.64	5.64	4.04	-0.86	2.24	1.84	1.54	1.54	2.94	1.34
N#Cc1ccc(COC[C@H]2O[C@@H](n3c(NCc4ccc(Cl)c(Cl)c4)nc4c(N)ncnc43)[C@H](O)[C@@H]2O)cc1 (top concentration 10000 nM)	11.7	7.62	6.22	2.22	0.42	4.72	7.82	2.02	0.32	0.32	-0.68	9.22	9.72	-0.48	1.62	8.82	8.62	7.92	5.22	1.42
NC[C@@](O)(c1ccc(Cl)cc1)c1ccc(-c2cn[nH]c2)cc1 (top concentration 10000 nM)	-1.22	3.88	0.98	3.28	1.08	2.58	2.78	3.38	1.28	5.78	1.78	-1.22	0.38	-1.22	3.68	1.28	7.58	3.28	6.58	-1.22
O=c1[nH]c(C2CCCN2)nc2c1oc1ccc(Cl)cc12 (stereo not given) (top concentration 10000 nM)	0.6	5.8	3.3	2.1	0.2	-2.8	0.9	8.1	1.8	-0.7	-1.2	6.4	-0.5	0.8	1.2	2.4	5.1	6.2	-1.6	-2.8
NCC(=O)Nc1ccc(-n2nc(C(F)(F)F)cc2-c2ccc3c(ccc4ccccc43)c2)cc1 (top concentration 25000 nM)	8.4	7.9	11.3	-0.2	5.5	15.3	6.9	7.4	2.7	-0.2	2.9	11.2	19	5	7.6	8	17.3	13	8	4.7
Nc1ncnc2c1nc(Cl)n2[C@@H]1O[C@H](CO)[C@@H](O)[C@H]1O [8-chloro-adenosine] (top concentration 50000 nM)	-3.4	9.1	6	-3.6	-1.5	0.3	1.8	5.9	2.9	-1.6	1.6	0.3	7.1	-5.3	2.8	-1.9	1.4	-0.9	7.1	-5.3
COc1ccc(S(=O)(=O)Nc2cccnc2Nc2ccc(O)cc2)cc1 [ABT-751] (top concentration 10000 nM)	17.6	12.2	11.4	1.02	11.7	15.6	12.2	14.6	11.7	3.72	3.52	11.9	12.6	10.8	11.6	9.42	11.7	11.9	14.7	-3.48
CC1CCC(n2c3cnccc3c3cnc(Nc4ccc5c(n4)CCN(C(=O)CO)C5)nc32)CC1 (stereo not given) [AMG-925] (top concentration 1000 nM)	2.04	3.14	1.44	2.34	3.44	4.54	1.84	10.9	9.24	4.94	3.54	6.14	10.5	-0.16	8.14	5.44	14.7	5.74	10	1.94
O=C(NC1CCNCC1)c1n[nH]cc1NC(=O)c1c(Cl)cccc1Cl [AT7519] (top concentration 10000 nM)	-6.06	-3.46	-4.06	2.74	-14.6	-10.7	-4.16	-5.06	-4.26	-4.56	-1.26	-3.86	-3.06	-8.16	-2.96	-7.16	-3.16	-7.46	-4.76	-17.8
Cc1cc2c(C(C)C)c(O)c(O)c(C=O)c2c(O)c1-c1c(C)cc2c(C(C)C)c(O)c(O)c(C=O)c2c1O [AT-101] (top concentration 100000 nM)	5.08	4.88	8.08	4.98	0.58	4.28	5.98	14.6	9.28	-0.92	3.98	4.98	5.88	4.58	5.18	1.98	0.98	1.88	3.78	0.98
N[C@@H]1CCCN(c2c(/C=C3\SC(=O)NC3=O)cccc2-c2ccccc2)C1 [AZD1208] (top concentration 10000 nM)	0.7	-4.4	-4.4	12.4	6.3	-4.2	-3.3	7.4	-3.8	-4.4	3.9	1.5	-4.4	2.4	-1.1	-3.8	0.6	-3.1	-4.4	-4.1
Cc1ncc(-c2ccnc(Nc3ccc(S(C)(=O)=O)cc3)n2)n1C(C)C [AZD-5438] (top concentration 10000 nM)	-3.86	3.54	-0.56	3.94	-5.96	-1.06	2.64	5.24	0.44	6.64	-6.86	3.64	5.44	-6.86	0.84	-2.46	2.44	-0.76	2.34	-9.96
CCN1CCN(Cc2ccc(Nc3ncc(F)c(-c4cc(F)c5nc(C)n(C(C)C)c5c4)n3)nc2)CC1 [Abemaciclib] (top concentration 2500 nM)	-2.66	-2.36	-2.36	6.44	-3.06	-6.16	-4.66	20.2	2.94	1.24	-1.76	1.44	8.24	-5.96	5.94	-1.26	8.74	0.74	-1.86	-9.66
Cn1ncc(Cl)c1-c1cc(C(=O)N[C@H](CN)Cc2cccc(F)c2)sc1Cl [Afuresertib] (top concentration 1000 nM)	3.66	5.36	5.26	2.76	3.96	3.86	3.06	6.06	0.86	-1.94	5.06	0.16	10.4	-2.34	5.56	2.66	5.36	1.16	0.36	-1.94
O=C(Nc1cc(Oc2cc(F)c(NC(=O)C3(C(=O)Nc4ccc(F)cc4)CC3)cc2F)ccn1)C1CC1 [Altiratinib] (top concentration 10000 nM)	13.9	-0.16	-0.46	-0.36	1.14	0.84	2.74	3.74	-0.36	-4.86	2.84	-0.36	0.04	4.14	1.84	0.64	7.24	1.64	13.7	-2.56
